# Test: Solubility in water of TBD salts (crude samples)
# Format: physicochemical
# Conditions: not given
# Description: Solubilities were determined with the crude samples and indicate the volume of water sufficient to dissolve one gram of the salt.
row,Molecule,Solubility in water [g/100ml]
1,"C1CN=C2NCCCN2C1.O=C(O)Cc1ccc([N+](=O)[O-])cc1[N+](=O)[O-] [Example 10, TBD 2,4-dinitrophenylacetate]",≥ 30
2,"C1CN=C2NCCCN2C1.O=C(O)c1ccc([N+](=O)[O-])c(O)c1 [Example 14, TBD 3-hydroxy-4-nitrobenzoate]",≥ 30
3,"C1CN=C2NCCCN2C1.O=C(O)c1ccc(Cl)c([N+](=O)[O-])c1 [Example 12, TBD 4-chloro-3-nitrobenzoate]",≥ 40
4,"C1CN=C2NCCCN2C1.O=C(O)c1ccccc1I [Example 15, TBD 2-iodobenzoate]",≥ 10
5,"C1CN=C2NCCCN2C1.O=C(O)c1ccc(Cl)cc1[N+](=O)[O-] [Example 8, TBD 4-chloro-2-nitrobenzoate]",≥ 10
6,TBD 5-amino-5-hydroxybenzoate [Example 16],≥ 10
7,"C1CN=C2NCCCN2C1.O=C(O)c1cc(Cl)ccc1[N+](=O)[O-] [Example 11, TBD 5-chloro-2-nitrobenzoate]",≥ 40
8,"C1CN=C2NCCCN2C1.O=C(O)Cc1ccc([N+](=O)[O-])cc1 [Example 9, TBD 4-nitrophenylacetate]",≥ 20
9,"C1CN=C2NCCCN2C1.C1CN=C2NCCCN2C1.O=C(O)c1cc(C(=O)O)cc([N+](=O)[O-])c1 [Example 17, TBD 5-nitroisophthalate (5-nitrobenzene-1,3-dicarboxylic acid bis TBD salt)]",≥ 30
10,"C1CN=C2NCCCN2C1.O=C(O)c1cc([N+](=O)[O-])ccc1O [Example 13, TBD 5-nitrosalicylate (2-hydroxy-5-nitrobenzoate)]",≥ 160

# Test: not given
# Conditions: pH 6.5
row,Molecule,Solubility in distilled water [mg/mL]
1,"C1CN=C2NCCCN2C1.O=C(O)c1cc2ccccc2[nH]1 [Example 2, salt of 1,5,7-triazabicyclo-[4.4.7]dec-5-ene (TBD, HHPP) with indole-2-carboxylic acid]",70

# Same assay, conditions: solution in water
row,Molecule,pH of solution
1,"C1CN=C2NCCCN2C1.O=C(O)c1cc2ccccc2[nH]1 [Example 2, salt of 1,5,7-triazabicyclo-[4.4.7]dec-5-ene (TBD, HHPP) with indole-2-carboxylic acid]",6.5

# — patent EP0519971B1, “NOVEL […] ACTIVE COMPOUNDS WHICH CAN BE FORMED FROM 1,3,4,6,7,8-HEXAHYDRO-2H-PYRIMIDO-(1,2-a)-PYRIMIDINE” (priority 1990, dated 1991)
